From patent publication US9585875B2, “TRPM8 antagonists” (Dompé S.P.A., priority 2011, dated 2017)

Key:
[1] = biological target: T1, TRPM8 (Homo sapiens, UniProt Q7Z2W7); assay: HTS cell-based Ca2+ mobilization assay (FLIPR TETRA) in HEK293/hTRPM8 cells, agonist Cooling Agent 10; set-up: expressed in transfected cells; conditions: HEK293/hTRPM8, Cooling Agent 10 at EC80
From the text: A functional cell-based assay for the identification of TRPM8 receptor antagonists, optimised to allow high throughput screening at FLIPR^TETRA, was developed in HEK293 cells by stable pure clone selection and functional characterization with a fluorescent calcium sensitive dye.
TRPM8 was cloned into the multiple cloning site of pcDNA3 mammalian expression vector; the obtained construct pcDNA3/hTRPM8 was fully sequence verified and used for the transfection of HEK293 cell line. HEK293 cells stably transfected with TRPM8 gene were maintained in Minimum essential medium. The cells were transfected with the pcDNA3/hTRPM8 vector by electroporation and then selected with medium containing 0.8 mg/ml G418 for 10-15 days.
The following commercial compounds were used as ligands:
Activator: Cooling Agent 10 (Takasago CAS N. 87061-04-9)
Blocker: Capsazepine (SIGMA cat #D_5879)
The experimental activities were performed using FLIPR^TETRA instruments.
HEK293 cells stably transfected with TRPM8 gene were maintained in Minimum essential medium.
The TRPM8 cell line was analysed for the response to a library of compounds using a Ca^2+ mobilization-dependent fluorescence signal in 384 wells microtiter plate format. The analysis was performed using the FLIPR^TETRA (MDC) with the ICCD Camera.
The execution of the assay involved the use of three microtiter plates:
1. Assay plate, containing cells loaded with dye and prepared as follows:
Cells were seeded at 15000 c/well in Poly-D-Lysine coated 384 wells Microtiter Plates in complete medium (25 μl/well).
24 h after seeding, the cell plates were washed with Tyrode assay buffer by the Microplate Washer and 10 μL of Tyrode assay buffer was left in each well.
Cells were then loaded with 10 μL/well of the Fluo-4 NW dye solution by CyBi®-Well pipettor. Each bottle of Fluo4-NW dye (Molecular Probes cat. #F36206, component A) was re-suspended in 8 mL of Tyrode assay buffer and supplemented with 100 μL of water-soluble probenecid (MolecularProbes cat.#F36206, component B).
Dye loaded cell plates were incubated for 1 h at room temperature.
2. Compound Dilution Plate (FIG. 1), containing diluted test compounds, formulated as follows: […]
Column 1: wells containing Assay Buffer plus DMSO 0.5% final
Columns 3-22: wells containing Assay Buffer plus 0.5% DMSO final. To these wells the compounds to be tested were added at 3× concentration.
Column 23: alternating wells of Max Signal Control in second injection (Assay buffer) and Min Signal Control in second injection (Antagonist Capsazepine IC100, 50 μM) in Assay buffer plus 0.5% DMSO final;
Column 24: wells containing Capsazepine (Antagonist) at 8 concentrations in duplicate at final concentrations of 50 μM, 25 μM, 6.25 μM, 3.15 μM, 1.56 μM, 780 nM, […] in Assay buffer plus 0.5% DMSO final.
3. Activator Plate (FIG. 2), containing agonist Cooling Agent 10 at EC80, formulated as follows:
Column 1: Cooling Agent 10 (Agonist) at 8 concentrations dose response in duplicate at final concentrations of 100 μM, 31.6 μM, 10 μM, 3.16 μM, 1 μM, 316 nM, 100 nM, 31.6 nM in Assay buffer;
Columns 2-24: Cooling Agent 10 (Agonist) at EC80 (3 fold concentrated, 20 μM final) in Assay buffer.
The test was carried out according to a procedure comprising the following steps:
1. The samples contained in the wells of the Compound Plate were added to the corresponding wells of the Assay Plate by the FLIPR^TETRA, thus resulting in the addition in Columns 3-22 of the test compounds at 3× concentration to the cells of the assay plates. No mixing was performed in the assay wells and the signal of the emitted fluorescence was recorded for 300 seconds. 2. The samples contained in the wells of the Activator Plate were added to the corresponding wells of the Assay Plate by the FLIPR^TETRA, thus resulting in the addition in Columns 3-22 of the Assay Plate of the agonist compound in addition to the test compounds. The signal of the emitted fluorescence was recorded for 180 seconds.

[2] = biological target: CYP 1A2 (Homo sapiens, UniProt P05177); assay: CYP inhibition; format: in vitro ADME
[3] = biological target: T2, human Histamine H1 Receptor (Homo sapiens, UniProt P35367); assay: Radioligand binding assay; conditions: read-out: percentage of control binding value (% B)
T2 construct: expressed in transfected cells; host or cells: HEK293 or CHO
Description: (§1) The objective of this study was to evaluate the in vitro effects of compounds 10 and 45 on cloned human GPCRs (G-protein coupled receptors) expressed in HEK293 or CHO cells using radioligand binding assays (compound concentration=10 μM).
(§2) Three replicates were performed for each experiment.
(§3) For each assay a concentration-response curve of the appropriate reference compound was performed in each experiment. The sample radioactivity content was measured after the addition of the scintillation cocktail Microscint 20 (PerkinElmer), by a microplate scintillation Beta-counter TopCount NXT (PerkinElmer). The atomic disintegrations per minutes evaluated with the beta counter were about 15 times higher than those found using the gamma counter. Data are expressed as percentage of control binding value (% B) and test compound inhibition was considered significant when % B was <75% at 10 μM.

[4] = biological target: T3, human Adrenergic β1 Receptor (Homo sapiens, UniProt P08588); assay: Radioligand binding assay; conditions: read-out: percentage of control binding value (% B)
T3 construct: expressed in transfected cells; host or cells: HEK293 or CHO
Description: as §1, §2, §3

[5] = biological target: T4, human Adrenergic α2A Receptor (Homo sapiens, UniProt P08913); assay: Radioligand binding assay; conditions: read-out: percentage of control binding value (% B)
T4 construct: expressed in transfected cells; host or cells: HEK293 or CHO
Description: as §1, §2, §3

[6] = biological target: T5, human Bradykinin B1 Receptor (Homo sapiens, UniProt P46663); assay: Radioligand binding assay; conditions: read-out: percentage of control binding value (% B)
T5 construct: expressed in transfected cells; host or cells: HEK293 or CHO
Description: as §1, §2, §3

[7] = biological target: T6, human Adrenergic β2 Receptor (Homo sapiens, UniProt P07550); assay: Radioligand binding assay; conditions: read-out: percentage of control binding value (% B)
T6 construct: expressed in transfected cells; host or cells: HEK293 or CHO
Description: as §1, §2, §3

[8] = biological target: T7, human Dopamine D2S Receptor (Homo sapiens, UniProt P14416); assay: Radioligand binding assay; conditions: read-out: percentage of control binding value (% B)
T7 construct: expressed in transfected cells; host or cells: HEK293 or CHO
Description: as §1, §2, §3

[9] = biological target: T8, human Muscarinic M2 Receptor (Homo sapiens, UniProt P08172); assay: Radioligand binding assay; conditions: read-out: percentage of control binding value (% B)
T8 construct: expressed in transfected cells; host or cells: HEK293 or CHO
Description: as §1, §2, §3

[10] = biological target: T9, human Histamine H2 Receptor (Homo sapiens, UniProt P25021); assay: Radioligand binding assay; conditions: read-out: percentage of control binding value (% B)
T9 construct: expressed in transfected cells; host or cells: HEK293 or CHO
Description: as §1, §2, §3

[11] = biological target: T10, human Adrenergic α1A Receptor (Homo sapiens, UniProt P35348); assay: Radioligand binding assay; conditions: read-out: percentage of control binding value (% B)
T10 construct: expressed in transfected cells; host or cells: HEK293 or CHO
Description: as §1, §2, §3

[12] = biological target: T11, human Cannabinoid CB2 Receptor (Homo sapiens, UniProt P34972); assay: Radioligand binding assay; conditions: read-out: percentage of control binding value (% B)
T11 construct: expressed in transfected cells; host or cells: HEK293 or CHO
Description: as §1, §2, §3

[13] = biological target: T12, human Muscarinic M3 Receptor (Homo sapiens, UniProt P20309); assay: Radioligand binding assay; conditions: read-out: percentage of control binding value (% B)
T12 construct: expressed in transfected cells; host or cells: HEK293 or CHO
Description: as §1, §2, §3

[14] = biological target: T1, TRPM8
From the text: (§4) Values were considered significant if the test compound mean was three or more standard deviations away from the positive control agonist mean.

[15] = biological target: T1, TRPM8; assay: cell-based
From the text: as §4

T1 sequence (Q7Z2W7 whole entry): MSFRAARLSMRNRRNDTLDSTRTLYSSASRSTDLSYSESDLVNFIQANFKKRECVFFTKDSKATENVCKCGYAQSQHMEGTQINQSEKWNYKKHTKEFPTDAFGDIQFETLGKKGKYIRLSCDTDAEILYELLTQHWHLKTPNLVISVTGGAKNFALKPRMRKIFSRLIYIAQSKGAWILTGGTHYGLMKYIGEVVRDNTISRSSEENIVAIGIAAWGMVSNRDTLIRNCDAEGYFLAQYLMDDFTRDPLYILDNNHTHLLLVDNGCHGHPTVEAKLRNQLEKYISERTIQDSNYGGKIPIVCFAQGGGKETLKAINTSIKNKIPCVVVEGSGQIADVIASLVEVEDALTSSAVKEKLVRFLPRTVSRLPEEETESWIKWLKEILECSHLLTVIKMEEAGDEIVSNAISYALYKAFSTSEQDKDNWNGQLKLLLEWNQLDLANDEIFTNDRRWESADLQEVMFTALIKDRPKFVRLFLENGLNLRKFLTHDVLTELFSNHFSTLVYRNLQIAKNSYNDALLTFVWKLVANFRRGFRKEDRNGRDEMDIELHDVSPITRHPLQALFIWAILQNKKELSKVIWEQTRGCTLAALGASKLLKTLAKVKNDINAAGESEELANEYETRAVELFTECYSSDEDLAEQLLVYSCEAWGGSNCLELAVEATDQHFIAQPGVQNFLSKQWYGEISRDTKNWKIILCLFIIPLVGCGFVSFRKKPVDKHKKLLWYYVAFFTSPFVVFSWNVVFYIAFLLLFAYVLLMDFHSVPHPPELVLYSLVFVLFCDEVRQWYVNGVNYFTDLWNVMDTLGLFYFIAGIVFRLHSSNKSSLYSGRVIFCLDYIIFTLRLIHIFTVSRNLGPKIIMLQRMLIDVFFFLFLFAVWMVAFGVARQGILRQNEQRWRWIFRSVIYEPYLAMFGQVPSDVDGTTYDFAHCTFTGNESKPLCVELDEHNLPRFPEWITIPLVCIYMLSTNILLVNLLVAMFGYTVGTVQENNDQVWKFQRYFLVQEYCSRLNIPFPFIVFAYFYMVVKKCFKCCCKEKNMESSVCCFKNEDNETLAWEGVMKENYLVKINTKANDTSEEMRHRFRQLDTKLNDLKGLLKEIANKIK
T6 sequence (P07550 whole entry): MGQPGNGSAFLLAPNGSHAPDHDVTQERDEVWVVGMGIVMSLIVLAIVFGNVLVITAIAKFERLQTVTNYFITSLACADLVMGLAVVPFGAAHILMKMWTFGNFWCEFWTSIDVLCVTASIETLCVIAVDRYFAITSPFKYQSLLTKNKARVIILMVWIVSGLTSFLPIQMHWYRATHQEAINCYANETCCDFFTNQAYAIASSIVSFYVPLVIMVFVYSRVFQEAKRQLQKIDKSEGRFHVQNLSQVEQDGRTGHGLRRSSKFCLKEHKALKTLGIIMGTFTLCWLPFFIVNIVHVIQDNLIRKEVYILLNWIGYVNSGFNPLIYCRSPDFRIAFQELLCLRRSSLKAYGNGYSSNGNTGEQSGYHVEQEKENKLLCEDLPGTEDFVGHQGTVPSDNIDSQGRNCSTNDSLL
T4 sequence (P08913 whole entry): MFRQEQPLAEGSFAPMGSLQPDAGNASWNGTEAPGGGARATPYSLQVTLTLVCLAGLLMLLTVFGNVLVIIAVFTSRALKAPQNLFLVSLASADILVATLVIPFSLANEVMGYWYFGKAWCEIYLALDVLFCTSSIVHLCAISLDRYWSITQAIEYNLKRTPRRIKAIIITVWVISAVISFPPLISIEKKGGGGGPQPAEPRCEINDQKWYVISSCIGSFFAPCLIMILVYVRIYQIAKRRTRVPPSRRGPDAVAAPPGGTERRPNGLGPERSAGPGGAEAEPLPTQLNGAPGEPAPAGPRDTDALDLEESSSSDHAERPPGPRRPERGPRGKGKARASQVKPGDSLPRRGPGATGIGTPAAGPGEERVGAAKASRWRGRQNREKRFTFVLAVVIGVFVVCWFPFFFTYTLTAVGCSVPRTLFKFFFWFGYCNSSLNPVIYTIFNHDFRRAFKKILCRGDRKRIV
T9 sequence (P25021 whole entry): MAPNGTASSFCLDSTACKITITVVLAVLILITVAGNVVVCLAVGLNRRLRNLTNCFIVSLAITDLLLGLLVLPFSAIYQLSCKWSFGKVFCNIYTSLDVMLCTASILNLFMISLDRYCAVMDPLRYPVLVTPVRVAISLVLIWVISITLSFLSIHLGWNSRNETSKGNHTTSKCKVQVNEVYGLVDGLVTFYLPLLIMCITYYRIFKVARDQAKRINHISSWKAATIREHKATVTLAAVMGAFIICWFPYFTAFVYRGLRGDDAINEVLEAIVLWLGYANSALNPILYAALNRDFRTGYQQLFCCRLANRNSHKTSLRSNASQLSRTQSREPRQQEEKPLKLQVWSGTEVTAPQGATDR
T11 sequence (P34972 whole entry): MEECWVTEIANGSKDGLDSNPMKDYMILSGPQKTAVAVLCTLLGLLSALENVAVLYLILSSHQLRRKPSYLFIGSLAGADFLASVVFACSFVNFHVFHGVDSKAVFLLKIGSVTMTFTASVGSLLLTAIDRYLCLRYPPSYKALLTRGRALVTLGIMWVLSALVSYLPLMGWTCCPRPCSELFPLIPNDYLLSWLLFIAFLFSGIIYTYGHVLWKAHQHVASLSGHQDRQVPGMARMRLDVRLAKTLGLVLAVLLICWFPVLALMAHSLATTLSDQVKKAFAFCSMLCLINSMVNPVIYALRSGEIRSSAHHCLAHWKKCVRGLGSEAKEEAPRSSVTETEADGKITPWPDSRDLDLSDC
T2 sequence (P35367 whole entry): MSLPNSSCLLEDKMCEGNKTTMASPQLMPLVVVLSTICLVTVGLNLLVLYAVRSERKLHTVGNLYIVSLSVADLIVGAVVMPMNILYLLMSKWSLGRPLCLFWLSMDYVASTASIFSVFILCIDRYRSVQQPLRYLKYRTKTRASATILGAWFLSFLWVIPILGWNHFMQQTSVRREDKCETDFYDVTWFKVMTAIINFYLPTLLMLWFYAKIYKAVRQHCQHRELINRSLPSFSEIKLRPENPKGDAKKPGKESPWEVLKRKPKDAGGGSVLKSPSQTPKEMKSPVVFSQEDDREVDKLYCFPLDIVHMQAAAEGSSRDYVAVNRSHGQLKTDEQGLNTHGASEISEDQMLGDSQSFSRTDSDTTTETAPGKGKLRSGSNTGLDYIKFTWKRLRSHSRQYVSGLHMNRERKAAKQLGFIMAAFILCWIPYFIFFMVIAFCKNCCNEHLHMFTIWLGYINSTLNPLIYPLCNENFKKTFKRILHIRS
T8 sequence (P08172 whole entry): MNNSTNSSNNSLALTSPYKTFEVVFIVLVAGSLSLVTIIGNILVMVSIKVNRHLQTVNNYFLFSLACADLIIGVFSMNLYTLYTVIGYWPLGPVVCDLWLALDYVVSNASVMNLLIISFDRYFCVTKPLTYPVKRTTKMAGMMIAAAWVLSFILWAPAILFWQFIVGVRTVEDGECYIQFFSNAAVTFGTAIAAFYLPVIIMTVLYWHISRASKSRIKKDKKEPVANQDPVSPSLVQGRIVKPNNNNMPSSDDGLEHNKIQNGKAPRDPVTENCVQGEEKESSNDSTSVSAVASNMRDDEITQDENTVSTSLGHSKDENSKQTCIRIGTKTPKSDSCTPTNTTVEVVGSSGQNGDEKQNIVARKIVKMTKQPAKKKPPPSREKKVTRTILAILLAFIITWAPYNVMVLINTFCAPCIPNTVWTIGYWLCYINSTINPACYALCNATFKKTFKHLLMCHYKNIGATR
Sequence of CYP 1A2 (P05177 whole entry): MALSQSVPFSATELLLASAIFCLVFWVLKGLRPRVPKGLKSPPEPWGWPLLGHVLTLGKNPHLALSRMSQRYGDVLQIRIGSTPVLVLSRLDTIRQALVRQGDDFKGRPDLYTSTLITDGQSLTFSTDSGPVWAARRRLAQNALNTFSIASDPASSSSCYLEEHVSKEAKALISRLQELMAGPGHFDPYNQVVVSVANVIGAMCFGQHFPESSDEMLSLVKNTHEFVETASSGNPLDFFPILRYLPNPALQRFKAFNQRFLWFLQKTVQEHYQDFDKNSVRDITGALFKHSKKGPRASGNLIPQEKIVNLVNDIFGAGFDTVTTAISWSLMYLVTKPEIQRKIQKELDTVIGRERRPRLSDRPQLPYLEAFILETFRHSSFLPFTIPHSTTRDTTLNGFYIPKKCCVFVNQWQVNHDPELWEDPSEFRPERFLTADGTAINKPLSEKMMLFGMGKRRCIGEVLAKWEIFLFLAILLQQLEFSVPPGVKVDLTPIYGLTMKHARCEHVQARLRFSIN
T3 sequence (P08588 whole entry): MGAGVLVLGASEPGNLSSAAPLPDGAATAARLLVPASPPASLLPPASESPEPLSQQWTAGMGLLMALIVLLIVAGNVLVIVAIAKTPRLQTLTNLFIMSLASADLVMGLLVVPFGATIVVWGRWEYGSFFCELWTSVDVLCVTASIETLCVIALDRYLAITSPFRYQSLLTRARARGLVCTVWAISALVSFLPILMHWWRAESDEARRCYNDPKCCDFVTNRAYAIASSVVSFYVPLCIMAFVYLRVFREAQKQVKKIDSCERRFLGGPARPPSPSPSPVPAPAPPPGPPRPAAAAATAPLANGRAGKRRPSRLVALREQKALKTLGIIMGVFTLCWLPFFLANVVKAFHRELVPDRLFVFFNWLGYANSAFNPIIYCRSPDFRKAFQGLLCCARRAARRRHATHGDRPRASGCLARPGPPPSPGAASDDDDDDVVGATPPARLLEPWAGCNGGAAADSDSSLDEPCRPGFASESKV

IC50 [1] | CYP (% inhibition) @10 μM, 1A2 [2] | remaining activity at 10 µM [3] | remaining activity at 10 µM [4] | remaining activity at 10 µM [5] | remaining activity at 10 µM [6] | remaining activity at 10 µM [7] | remaining activity at 10 µM [8] | remaining activity at 10 µM [9] | remaining activity at 10 µM [10] | remaining activity at 10 µM [11] | remaining activity at 10 µM [12] | remaining activity at 10 µM [13] | antagonist activity in calcium influx assay [14] | IC50 [15] | Compound
1 µM | <5% | 99.3% | 82% | 100% | 91% | 88% | 100% | 90% | 90% | 100% | 102% | 98% | confirmed the antagonist activity | 0.0002 µM | CCOC(=O)c1sc(-c2cccc(F)c2)nc1O [Compound 10, ethyl 2-(3-fluorophenyl)-4-hydroxy-1,3-thiazole-5-carboxylate]
0.0002 µM | <5% | 100% | 90.5% | 100% | 99.6% | 93% | 100% | 96% | 93.2% | 96% | 86.7% | 95% | confirmed the antagonist activity | 1 µM | O=C(O)c1sc(-c2ccc(Cl)cc2)nc1OCc1ccc(Cl)cc1 [Compound 45, 4-[(4-chlorobenzyl)oxy]-2-(4-chlorophenyl)-1,3-thiazole-5-carboxylic acid]
